Experimental data from US12630520B2, “Left-handed bicyclic morpholine and salt thereof, preparation method therefor, pharmaceutical composition, and use” (Institute of Materia Medica, Chinese Academy of Medical …, priority 2019, dated 2026).
Where two headings read alike, the source gives them in different places.

How the values were obtained:
[1] = Pharmacokinetics in male SD rats after intragastric administration; type: in vivo, rat; settings: 50 mg/kg intragastric, plasma
Procedure: Male SD rats were intragastrically administrated with the single enantiomer and racemate of IMM-H014, to compare their pharmacokinetic characteristics in rat bodies.
36 male SD rats were randomly divided into 6 groups, 6 animals in each group, including: (+)IMM-H014 intragastric administration group, (−)IMM-H014 intragastric administration group, and (±)IMM-H014 intragastric administration group. The administration dosage was 50 mg/kg. The rats were in fasting for 12 hours before the administrations and they could freely drink water.
100 mg of the IMM-H014 raw material drug was weighed and dissolved in 20 ml of purified water to prepare a 5 mg/ml administration solution, which was administrated (1 ml/100 g) in a single dose according to body weights.
At 0 hour before administrations, and at 5 min, 10 min, 30 min, 1 h, 2 h, 3 h, 5 h, 8 h, 12 h and 24 h after administrations, 250 μL of blood was taken from fundus plexus venosus, placed in an EP tube containing 10 μL of heparin sodium, and centrifuged at 4000 rpm for 10 min, and then the blood plasma was taken and stored in a refrigerator at −80° C.
50 μL of a plasma sample was precisely pipetted, and after 10 μL of an internal standard working solution was added thereto, they were placed in a 1.5 ml EP. They were whirled for 30 s and added with 500 μl of ethyl acetate. Then, they were whirled and vibrated for 5 min, and after being kept still for 10 min at 4° C., they were centrifuged for 5 min at 13000 r. The supernatant was taken and dried by blowing N2 at 30° C. The residue was re-dissolved by adding 100 μL of the initial mobile phase and centrifuged for 5 min at 13000 r, and the supernatant was transferred into a sampling bottle for measurements.
• Chromatographic column: Agilent ZORBAX SB-C18 (2.1×100 mm, 3.5 μm) • Mobile phase A: water (0.1% formic acid, 1 mM ammonium acetate); mobile • phase B: acetonitrile (0.1% formic acid) • Column temperature: at 35° C.; sampling amount: 3 μL • Elution: 0-2 min: 40%-53% of the B; 2-3 min: 53%-40% of the B 4.4 Mass Spectrometry Conditions
Ion source: ESI; detection mode: positive ions; temperature of drying gases: 300° C.; flow rate of drying gases: nitrogen gas, 11 L/min; atomizing gas: nitrogen, […]; capillary voltage: 4000 V; scanning mode: Multiple Reaction Measurement (MRM); ion pairs and related voltage parameters were shown below:
The original data obtained after samples were collected was treated by adopting MassHunter QQQ data processing software, to obtain blood-drug concentration data; then, the pharmacokinetic parameters were calculated through DAS software; finally, the t-test was performed by adopting SPSS software, to compare if there were statistical differences in drugs having the same optical activity but in different batches and in drugs having different optical activities, wherein the P<0.05 was considered to have significant differences. In the study, by intragastrically administrating 3 groups of SD rats with the single enantiomer and racemate of the IMM-H014 respectively, their pharmacokinetic characteristics in the rat bodies were studied.

HepG2 cells = assay: Carbon tetrachloride (CCl4)-induced in vitro hepatocyte injury, MTT; type: cell-based, human; settings: HepG2, 10 μM; for Cell survival rate increase (%): 0.6% CCl4, versus model group
Procedure: Human liver cancer HepG2 cells well retained the characteristics of normal human hepatocytes, and they were grown in a DMEM medium containing 10% of fetal calf cerium (containing 100 U/mL of penicillin and 100 μg/mL of streptomycin) at the culturing conditions: 37° C., 5% of CO2 and a saturated humidity. A solution containing 0.25% of trypsin and 0.02% of EDTA was used for digestions and passages.
A MTT method was adopted. The HepG2 cells were inoculated in a 96-well cell culture plate, and after 24 hour cultures, the (+)IMM-H014, the (−)IMM-H014 and the (±)IMM-H014 were added in a non-toxic concentration whilst the carbon tetrachloride (CCl4, a final concentration of 0.6%) was added thereto. A Bicyclol positive control group, a solvent control group and a model group were set for the experiment. They acted on the cells continuously for 24 h. The culture solution was discarded, and to each well, 100 μL of a MTT (0.5 mg/mL) solution was added to culture for 4 hours. The MTT solution was discarded, and to each well, 150 μL of DMSO was added. The mixture was oscillated by a mixing oscillator, and the absorbance value was measured at a wavelength of 570 nm in a microplate reader. Cell survival rate (%)=(OD mean of administration group/OD mean of solvent control group)×100%.
The data were presented as a number mean±standard deviation (x±SD).

[2] = tested on: ethionine-induced non-alcoholic fatty liver; assay: Ethionine-induced mouse non-alcoholic fatty liver model; type: in vivo; settings: for TC (mmol/gprot): mouse liver tissue cholesterol; for TC (mmol/gprot) / TG (mmol/gprot): 200 mg/kg intragastric once a day x3, 250 mg/kg ethionine; for TG (mmol/gprot): mouse liver tissue triglyceride; for Percent TG reduction (%) / TC reduction percent (%): mouse liver tissue, 200 mg/kg, versus model group
Procedure: 1. Method for Establishment of an Ethionine-Induced Mouse Non-Alcoholic Fatty Liver Model and Method of Administration SPF-grade male ICR mice (20-22 g), after acclimatization, were randomly divided into 5 groups: a blank control group, an ethionine-induced model group, a 200 mg/kg (+)IMM-H014 group, a 200 mg/kg (−)IMM-H014 group, and a 200 mg/kg (±)IMM-H014 group, 5 mice in each group. Three days before the establishment of the models, each administration group was intragastrically administrated once per day, and it was totally administrated three times. The animals in the blank control group and the model group were intragastrically administrated with the same dose of physiological saline. Each administration dose was 10 mL/kg. One hour after the last administration, the mice in each group were intragastrically administrated with 250 mg/kg ethionine once. The administration dose was 20 ml/kg. The mice were in fasting but not in water deprivation for 24 h and then the animals waited for further treatment. 2. Determinations of the Contents of Triglyceride and Cholesterol in Liver Tissues The mice were subjected to thoracotomy to take out the livers which were washed with physiological saline at 4° C. A part of the liver tissues were prepared into a 10% liver tissue homogenate with a lysate and an electric homogenizer, wherein one part was measured according to the measurement methods of a triglyceride kit and a cholesterol kit to determine the triglyceride and cholesterol therein, and the other part was measured with a BCA protein quantification kit to determine the content of proteins therein. The triglyceride and cholesterol in the liver tissues were subjected to protein corrections. By adopting SPSS software, the data each were presented as a number mean±standard deviation (x±SD).

SMILES	AUC (0-t) [1] [ng·h/mL]	AUC (0-∞) [1] [ng·h/mL]	CLz/F [1] [mL/min/kg]	Cmax [1] [ng/mL]	Tmax [1] [min]	t1/2z [1] [min]	Survival rates (%) (HepG2 cells; 0.6% CCl4, 24 h, MTT)	Cell survival rate increase (%) (HepG2 cells)	TC (mmol/gprot) [2] [mmol/gprot]	TG (mmol/gprot) [2] [mmol/gprot]	Percent TG reduction (%) [2] [%]	TC reduction percent (%) [2] [%]	Cmax ([1]; male, SD, rat, po, 50 mg/kg, read-out: Cmax) [ng/mL]	Tmax ([1]; male, SD, rat, po, 50 mg/kg, read-out: Tmax) [min]	OD Mean ± SD (HepG2 cells; 0.6% CCl4, 24 h, MTT, 570 nm)	Percent TG reduction (%) ([2]; listed as (−) IMM-H014, 200 mg/kg)
COC(=O)c1cc(OC)c2c(c1-c1c(CN3CCOCC3)cc(OC)c3c1OCO3)OCO2 (racemic) [(±)IMM-H014]	5242 ± 3447	5268 ± 3432	233 ± 155	3324 ± 2307	12.5 ± 9	72.36 ± 16.2	92.09	18.74	0.063 ± 0.013	0.110 ± 0.005	56.6	30.0	–	–	–	–
COC(=O)c1cc(OC)c2c(c1-c1c(CN3CCOCC3)cc(OC)c3c1OCO3)OCO2 [(+)IMM-H014]	2876 ± 1978	2877 ± 1977	417 ± 262	–	–	59 ± 15.6	87.32	12.59	0.065 ± 0.022	0.235 ± 0.070	7.1	27.2	2280 ± 2000	20 ± 11.4	0.799 ± 0.014	–
COC(=O)c1cc(OC)c2c(c1-c1c(CN3CCOCC3)cc(OC)c3c1OCO3)OCO2 [(−)IMM-H014]	5866 ± 2979	5892 ± 3005	178 ± 103	3280 ± 1579	18 ± 10.8	74.88 ± 19.8	104.44	34.66	0.061 ± 0.013	0.154 ± 0.040	39.0	32.4	–	–	–	39.0
